Measurements published in PMC11023993, “Piperine, quercetin, and curcumin identified as promising natural products for topical treatment of cutaneous leishmaniasis” (Parasitology Research, 2024).

Test system: L. braziliensis
Conditions: n = 6
Text: Golden hamsters (Mesocricetus auratus) were purchased from Charles River Laboratories (Wilmington MA, USA) and bred under specific pathogen-free conditions at the animal facility unit of the Universidad de Antioquia in Medellín, Colombia. Six- to eight-week-old, male, and female hamsters were used for the experiments. Animal experimentation protocols including handling of the animals, sample collection, and euthanasia were done in compliance of the Center for Diseases Control and Prevention guidelines for Safe Work Practices in Human and Animal Medical Diagnostic Laboratories and ARRIVE guidelines (Percie du Sert et al. [2020b]; Khairani et al. [2022]) and approved by the Institutional Ethical Committee for animal experimentation (Act No. 152 of June 01, 2023) (Percie du Sert et al. [2020a]; Khairani et al. [2022]).
Hamsters were anesthetized with ketamine (80 mg/kg, i.p.) and xylazine (15 mg/Kg) before infection and then, ∼1 × 10^8 promastigotes in stationary phase (6 days-old growth) were inoculated into the dorsum dermis (Robledo et al. [2012]). When hamsters developed ulcers larger than 12.5 mm^2, hamsters were randomly distributed into 4 groups (n = 6, each): (1) group treated with QUE (1 mg/day), (2) group treated with PIP (2.5 mg/day), (3) group treated with CUR (1.5 mg/day), (4) group treated with meglumine antimoniate (treatment control group, 200 µg/mL, intralesional). No vehicle control group was included in the present study because castor oil additive is a nonionic surfactant commonly used as an excipient in pharmaceutical formulations, particularly in solubilizing poorly water-soluble drugs. It is widely used as an ingredient in cosmetics for its conditioning properties, based on occlusive action, reducing water loss, and having a nourishing effect on the skin, hair, and nails (Marwat et al. [2017]; Khairani et al. [2022]).
Hamsters were treated daily with 40 µL of the corresponding formulation for 2 weeks, applying it directly over the lesion, while hamsters treated with meglumine antimoniate received treatment three times per week for 4 weeks. Lesion area was measured every week for 90 days with an electronic digital caliper. The body weight gain or loss was supervised every 2 weeks during the study. At the end of the study, hamsters were euthanized with an i.p. injection of ketamine (600 mg/kg) and xylazine (30 mg/kg). The experiments were carried out under normal laboratory lighting conditions. After necropsy, biopsies from healed and unhealed ulcers were removed and fixed in 10% buffered formalin, processed, and stained with hematoxylin–eosin (H-E) stain for histopathology analysis. The changes were analyzed under a standard optical microscope.

## O=c1c(O)c(-c2ccc(O)c(O)c2)oc2cc(O)cc(O)c12 [Quercetin, quercetin]
Topical daily for 15 days
  treatment failures: No failures
Topical in castor oil daily for 15 days, QUE 1 mg/day, CUR 1.5 mg/day, PIP 2.5 mg/day, followed 90 days
  therapeutic response (hamsters cured): 100%
